Measurements: patent US20260014095A1, “PATCH […] PREPARATION METHOD AND USE THEREOF” (DEMOTECH.INC., priority 2022, published 2026)
Converted amounts (≈) assume the structure as drawn.

Columns and labels:
[1] = Solubility of colchicine in different types of pressure-sensitive adhesives; format: physicochemical; details: for State in the 4098 pressure-sensitive adhesive: 0 days; for Stability (crystallization or not) in the 4098 pressure-sensitive adhesive: room temperature for 4 months
Method: Colchicine with different contents was dissolved in pressure-sensitive adhesive systems with different properties.

[2] = Solubility test of colchicine in solvents; format: physicochemical; details: thermodynamic from solid, 25° C.
Method: About 2 g of the colchicine raw material was weighed and placed in a 100 ml brown volumetric flask, into which 10 ml of a solvent was added. The mixture was uniformly mixed, placed in a thermostatic oscillator with a water bath at 25° C., and observed periodically, into which the raw material was continuously added once the solution became clear. […] After the saturated solution was centrifuged in a centrifuge, the supernatant was taken and diluted to a suitable concentration, the concentration of which was then determined using the external standard method, and the solubility was calculated.

COc1cc2c(c(OC)c1OC)-c1ccc(OC)c(=O)cc1[C@@H](NC(C)=O)CC2 [colchicine, N-(5,6,7,9-tetrahydro-1,2,3,10-tetramethoxy-9-oxobenzo[α]cycloheptatrienocycloheptatrien-7-yl)-(S)-acetamide]
State in the 4098 pressure-sensitive adhesive ([1]; content higher than 5%): semitransparent | State in the 4098 pressure-sensitive adhesive ([1]; content of colchicine 5% or less): transparent | Stability (crystallization or not) in the 4098 pressure-sensitive adhesive ([1]; content 5% or less): no crystallization is found | Stability (crystallization or not) in the 4098 pressure-sensitive adhesive ([1]; content more than 5%): crystallization is precipitated | Highest solubility of colchicine in typical acrylic pressure-sensitive adhesives ([1]; without a permeation enhancer): about 5% | solubility at 24 h ([2]; 1 M triethanolamine (TEOA) in ethanol, organic solvent or mixture, 1M solution of TEOA (triethanolamine) in ethanol): 740 mg/mL (≈ 1850 mM) | solubility at 24 h ([2]; organic solvent or mixture, DGME (diethylene glycol monoethyl ether)): 350 mg/mL (≈ 876 mM) | solubility at 24 h ([2]; organic solvent or mixture, Ethanol:ethyl acetate (1:1, v/v)): 380 mg/mL (≈ 951 mM) | solubility at 24 h ([2]; organic solvent or mixture, Ethyl acetate): 0.48 mg/mL (≈ 1.2 mM) | solubility at 24 h ([2]; organic solvent or mixture, ethanol): 590 mg/mL (≈ 1480 mM) | solubility at 24 h ([2]; water): > 1000 mg/mL
